How the values were obtained:
HIV protease = molecular target: T1, HIV protease (Human immunodeficiency virus type 1 group M subtype B, UniProt P04585); experiment: Recombinant HIV Protease HPLC Assay; type: biochemical
T1 construct: HIV protease was expressed in E. coli [construct pBRT1 prt⁺; made in house; host or cells: E. coli
Description: The procedure is based on the capacity of the test compound to inhibit enzymatic cleavage by HIV protease of a decapeptide (the substrate) having an amino acid sequence which includes a known HIV protease cleavage site of a HIV polyprotein; see H.G. Krausslich et al., Proc. Natl. Acad. Sci. USA, 86, 807 (1989). Details of this assay together with the results obtained for exemplified compounds of formula 1 are described in the examples hereinafter.
Recombinant HIV Protease HPLC Assay:
HIV protease was expressed in E. coli [construct pBRT1 prt⁺, see W.G. Farmerie et al., Science, 236, 305 (1987)], according to the following protocol: Unless stated otherwise, all solutions are aqueous solutions.
E. coli cells containing the pBRT1 prt⁺ plasmid were used to inoculate a seed culture media composed of Luria-Bertani Broth containing 100µg/mL of ampicillin. Flasks were incubated at 37° under agitation for 17 h. Production flasks containing sterile M9 broth, supplemented with 100µg/ml of ampicillin, were inoculated at a level of 1% (v/v) using the seed culture described above. Total volume in each production flask was 500 mL in a 2 L Erlenmeyer flask. Flasks were incubated at 37° under agitation until a cell concentration corresponding to an optical density (λ = […]) of 0.6 was reached (no dilution). This time span was routinely 3-4 h. Flasks were then supplemented with 5mM isopropylthiogalactoside (IPTG, Research Organics, Cleveland, Ohio, USA) and incubation was continued until the cell concentration reached an optical density of 0.2 at 16-fold dilution. Flasks were then supplemented with 1mM phenylmethylsulfonyl fluoride (PMSF) and rapidly chilled to 4°. The bacterial cells were recovered by centrifugation at 4°. The wet pellet was stored at -70°.
All steps below were performed at 4° unless otherwise indicated. Thawed cells were mixed with buffer A [50 mM tris(hydroxymethyl)[…] HCl(Tris-HCl, pH 7.4); 0.6 mM ethylenediaminetetraacetic acid (EDTA); 0.375 M NaCl, 0.2% Nonidet P-40 ® (BDH Chemicals Ltd., Poole, UK); 1mM PMSF], at a ratio of one part cells to nine parts buffer A. Diatomaceous earth (Celite 545 ® , John Manville, Lompoc, CA, USA) was added at a ratio of two parts to one part of wet cell weight. The resulting slurry was homogenized at high speed (ca. 20,000 rpm) on a Waring ® industrial blender for 8 x 15 sec. pulses. Cell debris/Celite ® was collected by centrifugation and the resulting pellet was extracted with 4.5 parts of buffer A to one part wet solids using the homogenization procedure described above. Supernatants from both homogenization steps were combined and soluble protein was precipitated by the addition of solid (NH₄)₂SO₄ to yield a final concentration of 75% saturation. This mixture was agitated for 60 min and the precipitate was recovered by centrifugation. The resulting pellet was suspended in buffer B [50mM Tris-HCl, pH 8; 30 mM NaCl; 1 mM DL-dithiothreitol(DTT); 1 mM EDTA; 1 mM PMSF; 10% glycerol], and dialyzed for 18h against the same buffer.
An aliquot of the dialyzed extract containing 150 mg of the protein was loaded onto a Sephadex A25 ® anion exchange column. (Pharmacia, Uppsala, Sweden) with bed dimensions of 70 cm length and 2.5 cm diameter. The sample was eluted isocratically with buffer B at a linear flow rate of 10 cm/h. Fractions containing HIV protease activity (see below for assay description) were combined, and soluble protein was precipitated by the addition of saturated aqueous (NH₄)₂SO₄ to yield a total (NH₄)₂SO₄ concentration of 85% saturation. Precipitated protein was removed by centrifugation and the resulting pellet was dissolved in buffer C [50 mM 2-(4-morpholino)ethanesulfonic acid (MES), pH 5.5; 150 mM NaCl; 1 mM DTT; 1 mM EDTA; 10% glycerol). This preparation was dialyzed for 18h against buffer C, and then frozen at -70°. All crude extracts were purified by chromatography in aliquots containing 150 mg of protein in the same manner as described above. […]

H9/HTLV-IIIB = experiment: Inhibition of syncytia formation in HIV-infected C8166 cells (antiviral screen adapted from plaque assay of Harada et al.); type: cell-based; details: Human immunodeficiency virus 1, IIIB, 72 h
Description: Typical of such procedures are those described by S. Harada and N. Yamamoto, Jpn. J. Cancer Res. (Gann), 76, 432 (1985), and S. Harada et al., Science, 229, 563 (1985). An assay based on the latter procedures is described in the examples hereinafter.
The following protocol, used for screening antiviral effects of the compounds of formula 1 , is adapted from a plaque assay utilizing HTLV-I transformed cells which was developed by Harada et al., supra. HTLV-I transformed cells are used in these assays because of the rapidity with which HIV will replicate in these cells. • 1. The test compound is dissolved in dimethylsulfoxide to a concentration of 5 mg/mL. The resultant solution can be stored at 4° until used. • 2. The resultant solution is diluted in RPMI 1640 (Gibco Laboratories, St. Lawrence, MA, USA) to four times (4x) the final concentration which is to be tested. Once diluted in RPMI 1640, the solution is used in the cell culture assay within 4 h. • 3. The 4x solution (50µL) is added to triplicate wells of a 96 well flat bottomed microtiter plate. […] Infectious titer of virus stocks are as previously determined by end point dilution on C8166 cells. […] Plates are then removed and centers of syncytia are counted in each well by low power phase contrast light microscopy. […] Percent inhibition of syncytia formation is calculated by the formula: [formula]

CC(C)(C)OC(=O)NC(CNC(CC1CC1)C(=O)NC(CCC(=O)O)C(=O)NCCCc1ccccc1)Cc1ccccc1 (stereo not drawn) [Example 2, Boc-PheΨ[CH₂NH]Cpa-Glu-NHCH₂CH₂CH₂Ph]
IC50 (HIV protease): 13 nM | inhibition at 20 µg/mL (H9/HTLV-IIIB): 54%

CC(C)(C)OC(=O)NC(CC1CCCCC1)C(O)CC(=O)NC(CCC(=O)O)C(=O)NCCCc1ccccc1 (stereo not shown) [Example 4, Boc-ACHPA-Glu-NHCH₂CH₂CH₂Ph]
IC50 (HIV protease): 7 nM | inhibition at 20 µg/mL (H9/HTLV-IIIB): 96%

Reference: patent EP0443560A2, “HIV protease inhibitors” (priority 1990, dated 1991)
